Data taken from US8334298B2, “Treatment or prevention of ovarian hyperstimulation syndrome (OHSS) using a dopamine agonist” (Ferring International Center S.A., priority 2005, dated 2012).

How the values were obtained:
[1] = test system: women with PCOS and hyperprolactinemia; conditions: during ovarian induction with GnRH agonist, FSH and hCG; cited from earlier work
OHSS rats = assay: Previous experiments of the group: cabergoline and vascular permeability in OHSS rats; format: in vivo; conditions: cabergoline 250 μg/kg/day; p<0.05
Procedure: Vehicle control group (quinagolide 0 μg/kg) (n=8). Eight rats were implanted with prolactin placebo pellets, 5 days release, between 10:00 to 11:00 on day 26, just following hCG injection (see General Procedures, above). Six hours after pellet implantation, the rats in this group were orally administered vehicle solution (1:6 alcohol in water mixture) (without quinagolide). They received another oral vehicle administration of vehicle solution 24 hours later. Experimental groups (quinagolide at 0.1, 0.3, 1, 3, 10, 25, 50 μg/kg/day to 7 test groups of rats) (n=8 in each test group). The rats in these groups were implanted with prolactin pellets, 5 days release, between 10:00 to 11:00 on day 26, just following hCG injection (see General Procedures, above). […] In this manner, the desired 0.1, 0.3, 1, 3, 10, 25, 50 μg/kg doses to be assayed were achieved. Twenty four hours later, the rats in this group were administered with another dose of the same amounts of quinagolide. Positive (cabergoline) control group (n=6). These six rats were implanted with prolactin pellets, 5 days release, between 10:00 to 11:00 .m on day 26, just following hCG injection. […] Twenty four hours later, the rats in this group were administered with another dose of the same amount of cabergoline. […] Reconstitution and dilution process to reach appropriate quinagolide doses for oral administration. […]

[2] = test system: patient with pituitary adenoma and OHSS; conditions: cabergoline 0.5 mg twice per week for three weeks; cited from earlier work

C=CCN1C[C@H](C(=O)N(CCCN(C)C)C(=O)NCC)C[C@@H]2c3cccc4[nH]cc(c34)C[C@H]21 [Cabergoline, cabergoline]
risk of OHSS [1]: reduce the risk of OHSS
vascular permeability in OHSS rats (OHSS rats): significant decrease in vascular permeability
prolactin levels [2]: normalized prolactin levels
